Measurements from the supplement of paper PMC10733146.

Columns and labels:
Test in all cases: viability relative to DMSO control (fraction); higher = less drug effect (more viable cells)
Details in all cases: 48 h
[1] = test system: primary CLL patient cells (S031)
Outline: (§1)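 In 384-well plates with compounds pre-plated at five concentrations (one well per concentration), primary mononuclear tumour cells were plated at 4 × 10^4 cells per well. The cells came from blood or bone marrow by Ficoll isolation or from processed lymph node, and were used fresh or cryopreserved. Culture ran for 48 h at 37 °C and 5% CO2 in RPMI-1640 containing penicillin/streptomycin, L-glutamine and human serum. Viability was read as CellTiter-Glo luminescence, normalised to the median of 16 inner DMSO wells.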

[2] = test system: primary ALL patient cells (S088)
Outline: as §1

[3] = test system: primary AML patient cells (S071)
Outline: as §1

[4] = test system: primary T-PLL patient cells (S008)
Outline: as §1

[5] = test system: primary MCL patient cells (S041)
Outline: as §1

[6] = test system: primary ALL patient cells (S048)
Outline: as §1

[7] = test system: primary DLBCL patient cells (S082)
Outline: as §1

[8] = test system: primary FL patient cells (S022)
Outline: as §1

[9] = test system: primary MCL patient cells (S053)
Outline: as §1

[10] = test system: primary AML patient cells (S055)
Outline: as §1

[11] = test system: primary B-PLL patient cells (S016)
Outline: as §1

[12] = test system: primary AML patient cells (S072)
Outline: as §1

[13] = test system: primary MCL patient cells (S063)
Outline: as §1

[14] = test system: primary AML patient cells (S060)
Outline: as §1

[15] = test system: primary FL patient cells (S087)
Outline: as §1

[16] = test system: primary AML patient cells (S009)
Outline: as §1

[17] = test system: primary AML patient cells (S056)
Outline: as §1

[18] = test system: primary MCL patient cells (S068)
Outline: as §1

[19] = test system: primary AML patient cells (S079)
Outline: as §1

[20] = test system: primary BL patient cells (S005)
Outline: as §1

Q: What does the source list for `CC(C)(C)C[C@@H]1N[C@@H](C(=O)N[C@H]2CC[C@H](O)CC2)[C@H](c2cccc(Cl)c2F)[C@]12C(=O)Nc1cc(Cl)ccc12` [MI-773]?
A: viability ([1]; 0.008 µM): 0.97; viability ([1]; 0.04 µM): 0.819; viability ([1]; 0.2 µM): 0.593; viability ([1]; 1 µM): 0.439; viability ([1]; 5 µM): 0.0647; viability ([2]; 0.008 µM): 1; viability ([2]; 0.04 µM): 0.88; viability ([2]; 0.2 µM): 0.701; viability ([2]; 1 µM): 0.366; viability ([2]; 5 µM): 0.151; viability ([3]; 0.008 µM): 0.991; viability ([3]; 0.04 µM): 0.732; viability ([3]; 0.2 µM): 0.32; viability ([3]; 1 µM): 0.132; viability ([3]; 5 µM): 0.0874; viability ([4]; 0.008 µM): 0.99; viability ([4]; 0.04 µM): 0.946; viability ([4]; 0.2 µM): 0.989; viability ([4]; 1 µM): 0.677; viability ([4]; 5 µM): 0.258; viability ([5]; 0.008 µM): 1.02; viability ([5]; 0.04 µM): 0.976; viability ([5]; 0.2 µM): 0.92; viability ([5]; 1 µM): 0.752; viability ([5]; 5 µM): 0.434; viability ([6]; 0.008 µM): 1.01; viability ([6]; 0.04 µM): 0.992; viability ([6]; 0.2 µM): 0.799; viability ([6]; 1 µM): 0.472; viability ([6]; 5 µM): 0.0627; viability ([7]; 0.008 µM): 1.07; viability ([7]; 0.04 µM): 0.971; viability ([7]; 0.2 µM): 1.14; viability ([7]; 1 µM): 0.98; viability ([7]; 5 µM): 1.03; viability ([8]; 0.008 µM): 1.02; viability ([8]; 0.04 µM): 0.934; viability ([8]; 0.2 µM): 0.957; viability ([8]; 1 µM): 0.947; viability ([8]; 5 µM): 0.722; viability ([9]; 0.008 µM): 1.11; viability ([9]; 0.04 µM): 0.915; viability ([9]; 0.2 µM): 0.755; viability ([9]; 1 µM): 0.424; viability ([9]; 5 µM): 0.347; viability ([10]; 0.008 µM): 1.01; viability ([10]; 0.04 µM): 1.01; viability ([10]; 0.2 µM): 0.997; viability ([10]; 1 µM): 0.919; viability ([10]; 5 µM): 0.409; viability ([11]; 0.008 µM): 0.954; viability ([11]; 0.04 µM): 0.858; viability ([11]; 0.2 µM): 0.771; viability ([11]; 1 µM): 0.568; viability ([11]; 5 µM): 0.0958; viability ([12]; 0.008 µM): 1.06; viability ([12]; 0.04 µM): 0.843; viability ([12]; 0.2 µM): 0.934; viability ([12]; 1 µM): 0.775; viability ([12]; 5 µM): 0.762; viability ([13]; 0.008 µM): 1.07; viability ([13]; 0.04 µM): 1.05; viability ([13]; 0.2 µM): 0.995; viability ([13]; 1 µM): 0.705; viability ([13]; 5 µM): 0.246; viability ([14]; 0.008 µM): 1.06; viability ([14]; 0.04 µM): 0.997; viability ([14]; 0.2 µM): 1.09; viability ([14]; 1 µM): 0.99; viability ([14]; 5 µM): 1.09; viability ([15]; 0.008 µM): 1; viability ([15]; 0.04 µM): 0.99; viability ([15]; 0.2 µM): 0.937; viability ([15]; 1 µM): 0.849; viability ([15]; 5 µM): 0.694; viability ([16]; 0.008 µM): 0.894; viability ([16]; 0.04 µM): 0.755; viability ([16]; 0.2 µM): 0.698; viability ([16]; 1 µM): 0.56; viability ([16]; 5 µM): 0.524; viability ([17]; 0.008 µM): 1.03; viability ([17]; 0.04 µM): 0.9; viability ([17]; 0.2 µM): 0.696; viability ([17]; 1 µM): 0.296; viability ([17]; 5 µM): 0.117; viability ([18]; 0.008 µM): 1.08; viability ([18]; 0.04 µM): 0.944; viability ([18]; 0.2 µM): 0.986; viability ([18]; 1 µM): 0.854; viability ([18]; 5 µM): 0.68; viability ([19]; 0.008 µM): 1.01; viability ([19]; 0.04 µM): 1.01; viability ([19]; 0.2 µM): 1.01; viability ([19]; 1 µM): 0.901; viability ([19]; 5 µM): 0.636; viability ([20]; 0.008 µM): 0.915; viability ([20]; 0.04 µM): 0.744; viability ([20]; 0.2 µM): 0.789; viability ([20]; 1 µM): 0.897; viability ([20]; 5 µM): 0.903
